Reference: US20240116985A1, “STAPLED PEPTIDES AND METHODS THEREOF” (priority 2020, published 2024)
Like-named read-outs stand apart in the source and are kept apart here.

Assays:
[1] = molecular target: T1, full-length B-Catenin (Uniprot ID P35222) (Homo sapiens, UniProt P35222); test: Alphascreen binding assay (beta-catenin / biotin-TCF4 10-53)
T1 construct: 65 nM full-length B-Catenin (Uniprot ID P35222)
T1 sequence (P35222 1-781): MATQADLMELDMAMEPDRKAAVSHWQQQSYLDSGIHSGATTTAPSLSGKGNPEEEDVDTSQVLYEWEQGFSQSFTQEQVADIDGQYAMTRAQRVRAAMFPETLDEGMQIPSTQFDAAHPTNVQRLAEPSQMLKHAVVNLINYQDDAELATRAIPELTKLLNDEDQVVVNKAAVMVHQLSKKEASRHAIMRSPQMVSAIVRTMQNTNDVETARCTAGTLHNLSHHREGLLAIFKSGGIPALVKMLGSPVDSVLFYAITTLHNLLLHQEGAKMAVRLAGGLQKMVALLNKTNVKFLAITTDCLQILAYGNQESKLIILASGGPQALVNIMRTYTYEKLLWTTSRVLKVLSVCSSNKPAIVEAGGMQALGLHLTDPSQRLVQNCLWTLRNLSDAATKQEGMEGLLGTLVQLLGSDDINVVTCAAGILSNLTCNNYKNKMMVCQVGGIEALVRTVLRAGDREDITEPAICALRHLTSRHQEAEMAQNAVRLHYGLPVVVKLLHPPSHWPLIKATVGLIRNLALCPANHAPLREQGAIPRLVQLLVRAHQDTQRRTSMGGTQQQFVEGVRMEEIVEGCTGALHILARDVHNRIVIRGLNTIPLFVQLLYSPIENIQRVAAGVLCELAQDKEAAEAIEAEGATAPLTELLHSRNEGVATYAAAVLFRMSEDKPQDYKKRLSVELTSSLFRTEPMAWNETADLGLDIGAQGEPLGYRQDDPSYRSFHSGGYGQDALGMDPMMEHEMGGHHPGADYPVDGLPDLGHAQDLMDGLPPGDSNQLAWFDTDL
Method in brief: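 Final concentrations: 65 nM full-length human β-catenin plus 10 nM biotin-TCF4(10-53) peptide, test peptide 3-fold from 10 uM to 5 nM, preincubated 15 min at 20 °C in Tris pH 8.0/250 mM NaCl buffer. Nickel-chelate AlphaScreen donor/acceptor beads then added for 60 min in the dark; duplicate reads fitted to 1:1 binding model with Hill slope.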

CHI Log D procedure = format: physicochemical; settings: for CHI Log D: pH 7.4; for chromatographic logD: pH 7.4, CHI Log D
[2] = molecular target: T2, full-length beta-Catenin (Uniprot ID P35222) (Homo sapiens, UniProt P35222); test: Fluorescence polarization IC50 (beta-catenin / 5FAM-TCF4 10-53 competition); format: binding
T2 construct: 10 nM full-length beta-Catenin (Uniprot ID P35222)
T2 sequence (P35222 1-781): T1 sequence (P35222 1-781)

[3] = fluorescence polarization, beta-catenin, read-out: FP EC50
[4] = Table E2-1, read-out: beta-Catenin FP IC50

| SMILES | EC50 [1] [nM] | CHI Log D (CHI Log D procedure) | IC50 [2, 3] [nM] | IC50 [2, 4] [nM] | chromatographic logD (CHI Log D procedure) |
| --- | --- | --- | --- | --- | --- |
| CC(=O)N1CCC[C@]12CC=CCCCC1(CCCC=CCCCCCC[C@@](C)(C(=O)N[C@@H](Cc3ccccc3)C(=O)N[C@@H](Cc3c[nH]c4ccccc34)C(=O)N[C@@H](CCC(N)=O)C(N)=O)NC(=O)[C@H](C(C)C)NC(=O)[C@H](Cc3cccc(C(F)(F)F)c3)NC(=O)[C@H](C)NC(=O)[C@H](C)NC(=O)[C@H](CC(=O)O)NC(=O)[C@H](CC(=O)O)NC1=O)NC(=O)[C@H](C)NC(=O)[C@H](CC(=O)O)NC2=O (stereo partly drawn) [I-239, Ac-PL3-Asp-Ala-B5-Asp-Asp-Ala-Ala-3F3MeF-Val-S8-Phe-Trp-Gln-NH2] | 267 | 2.074 | 1590 | – | – |
| CC(=O)N1CCC[C@]12CC=CCCCC1(CCCC=CCCCCCC[C@@](C)(C(=O)N[C@@H](Cc3cccc4ccccc34)C(=O)N[C@@H](Cc3c[nH]c4ccccc34)C(=O)N[C@@H](CCC(N)=O)C(N)=O)NC(=O)[C@H](C(C)C)NC(=O)[C@H](Cc3ccccc3)NC(=O)[C@H](C)NC(=O)[C@H](C)NC(=O)[C@H](CC(=O)O)NC(=O)[C@H](CC(=O)O)NC1=O)NC(=O)[C@H](C)NC(=O)[C@H](CC(=O)O)NC2=O (stereo partly drawn) [I-276, Ac-PL3-Asp-Ala-B5-Asp-Asp-Ala-Ala-Phe-Val-S8-1NapA-Trp-Gln-NH2] | 329 | 2.207 | 3430 | 3430 | – |
| CC(=O)N1CCC[C@]12CC=CCCCC1(CCCC=CCCCCCC[C@@](C)(C(=O)N[C@@H](Cc3c[nH]cn3)C(=O)N[C@@H](Cc3c[nH]c4ccccc34)C(=O)N[C@@H](CCC(N)=O)C(N)=O)NC(=O)[C@H](C(C)C)NC(=O)[C@H](Cc3ccccc3)NC(=O)[C@H](C)NC(=O)[C@H](C)NC(=O)[C@H](CC(=O)O)NC(=O)[C@H](CC(=O)O)NC1=O)NC(=O)[C@H](C)NC(=O)[C@H](CC(=O)O)NC2=O (stereo partly drawn) [I-285, Ac-PL3-Asp-Ala-B5-Asp-Asp-Ala-Ala-Phe-Val-S8-His-Trp-Gln-NH2] | 246 | – | – | 5000 | 1.49 |
| CC(=O)N1CCC[C@]12CC=CCCCC1(CCCC=CCCCCCC[C@@](C)(C(=O)N[C@@H](Cc3ccccc3)C(=O)N[C@@H](Cc3c[nH]c4ccccc34)C(=O)N[C@@H](CCC(N)=O)C(N)=O)NC(=O)[C@H](C)NC(=O)[C@H](Cc3ccccc3)NC(=O)[C@H](C)NC(=O)[C@H](C)NC(=O)[C@H](CC(=O)O)NC(=O)[C@H](CC(=O)O)NC1=O)NC(=O)[C@H](C)NC(=O)[C@H](CC(=O)O)NC2=O (stereo partly drawn) [I-287, Ac-PL3-Asp-Ala-B5-Asp-Asp-Ala-Ala-Phe-Ala-S8-Phe-Trp-Gln-NH2] | 534 | 1.875 | 4950 | 4950 | – |
| CC(=O)N1CCC[C@]12CC=CCCCC1(CCCC=CCCCCCC[C@@](C)(C(=O)N[C@@H](Cc3ccccc3)C(=O)N[C@@H](Cc3c[nH]c4ccccc34)C(=O)N[C@@H](C)C(N)=O)NC(=O)[C@H](C(C)C)NC(=O)[C@H](Cc3ccccc3)NC(=O)[C@H](C)NC(=O)[C@H](C)NC(=O)[C@H](CC(=O)O)NC(=O)[C@H](CC(=O)O)NC1=O)NC(=O)[C@H](C)NC(=O)[C@H](CC(=O)O)NC2=O (stereo partly drawn) [I-291, Ac-PL3-Asp-Ala-B5-Asp-Asp-Ala-Ala-Phe-Val-S8-Phe-Trp-Ala-NH2] | 327 | 2.195 | 3130 | 3130 | – |
| CC(=O)N1CCC[C@]12CC=CCCCC1(CCCC=CCCCCCC[C@@](C)(C(=O)N[C@@H](Cc3ccccc3)C(=O)N[C@@H](Cc3c[nH]c4ccccc34)C(=O)N[C@@H](C)C(N)=O)NC(=O)[C@H](C(C)C)NC(=O)[C@H](Cc3ccccc3)NC(=O)[C@H](C)NC(=O)[C@H](C)NC(=O)[C@H](CC(=O)O)NC(=O)[C@H](CC(=O)O)NC1=O)NC(=O)[C@H](C)NC(=O)[C@H](CC(=O)O)NC2=O (stereo partly drawn) [I-292, Ac-PL3-Asp-Ala-B5-Asp-Asp-Ala-Ala-Phe-Val-S8-Phe-Trp-Ala-NH2] | 187 | 2.208 | 1870 | 1870 | – |
| CC(=O)N1CCC[C@]12CC=CCCCC1(CCCC=CCCCCCC[C@@](C)(C(=O)N[C@@H](Cc3ccccc3)C(=O)N[C@@H](Cc3csc4ccccc34)C(=O)N[C@@H](CCC(N)=O)C(N)=O)NC(=O)[C@H](C(C)C)NC(=O)[C@H](Cc3ccccc3)NC(=O)[C@H](C)NC(=O)[C@H](C)NC(=O)[C@H](CN(CC(=O)O)CC(F)(F)F)NC(=O)[C@H](CC(=O)O)NC1=O)NC(=O)[C@H](C)NC(=O)[C@H](CC(=O)O)NC2=O (stereo partly drawn) [I-293, Ac-PL3-Asp-Ala-B5-Asp-TfeGA-Ala-Ala-Phe-Val-S8-Phe-BztA-Gln-NH2] | 41 | – | – | 139 | 2.38 |
| CC(=O)N1CCC[C@]12CC=CCCCC1(CCCC=CCCCCCC[C@@](C)(C(=O)N[C@@H](Cc3ccccc3)C(=O)N[C@@H](Cc3csc4ccccc34)C(=O)N[C@@H](CCC(N)=O)C(N)=O)NC(=O)[C@H](CCC(N)=O)NC(=O)[C@H](Cc3ccccc3)NC(=O)[C@H](C)NC(=O)[C@H](C)NC(=O)[C@H](CC(=O)O)NC(=O)[C@H](CC(=O)O)NC1=O)NC(=O)[C@H](C)NC(=O)[C@H](CC(=O)O)NC2=O (stereo partly drawn) [I-294, Ac-PL3-Asp-Ala-B5-Asp-Asp-Ala-Ala-Phe-Gln-S8-Phe-BztA-Gln-NH2] | 40 | – | – | 130 | 2 |
| CC(=O)N1CCC[C@]12CC=CCCCC1(CCCC=CCCCCCC[C@@](C)(C(=O)N[C@@H](Cc3ccccc3)C(=O)N[C@@H](Cc3csc4ccccc34)C(=O)N[C@@H](CCC(N)=O)C(N)=O)NC(=O)[C@H](CCC(N)=O)NC(=O)[C@H](Cc3ccccc3)NC(=O)[C@H](C)NC(=O)[C@H](C)NC(=O)[C@H](Cc3ccc4ccccc4c3)NC(=O)[C@H](CC(=O)O)NC1=O)NC(=O)[C@H](C)NC(=O)[C@H](CC(=O)O)NC2=O (stereo partly drawn) [I-295, Ac-PL3-Asp-Ala-B5-Asp-2NapA-Ala-Ala-Phe-Gln-S8-Phe-BztA-Gln-NH2] | 1180 | – | – | 5000 | 2.66 |
| CC(=O)N1CCC[C@]12CC=CCCCC1(CCCC=CCCCCCC[C@@](C)(C(=O)N[C@@H](Cc3ccccc3)C(=O)N[C@@H](Cc3csc4ccccc34)C(=O)N[C@@H](C)C(N)=O)NC(=O)[C@H](CCC(N)=O)NC(=O)[C@H](Cc3ccccc3)NC(=O)[C@H](C)NC(=O)[C@H](C)NC(=O)[C@H](CC(=O)O)NC(=O)[C@H](CC(=O)O)NC1=O)NC(=O)[C@H](CCO)NC(=O)[C@H](CC(=O)O)NC2=O (stereo partly drawn) [I-299, Ac-PL3-Asp-Hse-B5-Asp-Asp-Ala-Ala-Phe-Gln-S8-Phe-BztA-Ala-NH2] | 189 | – | – | 1300 | 2 |
| CC(=O)N1CCC[C@]12CC=CCCCC1(CCCC=CCCCCCC[C@@](C)(C(=O)N[C@@H](Cc3ccccc3)C(=O)N[C@@H](Cc3c[nH]c4ccccc34)C(=O)N[C@@H](CCC(N)=O)C(N)=O)NC(=O)[C@H](C(C)C)NC(=O)[C@H](Cc3ccc(Cl)cc3)NC(=O)[C@H](C)NC(=O)[C@H](C)NC(=O)[C@H](CC(=O)O)NC(=O)[C@H](CC(=O)O)NC1=O)NC(=O)[C@H](C)NC(=O)[C@H](CC(=O)O)NC2=O (stereo partly drawn) [I-309, Ac-PL3-Asp-Ala-B5-Asp-Asp-Ala-Ala-4C1F-Val-S8-Phe-Trp-Gln-NH2] | 181 | 2.05 | 3120 | 3120 | – |
| CC(=O)N1CCC[C@]12CC=CCCCC1(CCCC=CCCCCCC[C@@](C)(C(=O)N[C@@H](Cc3ccccc3)C(=O)N[C@@H](Cc3c[nH]c4ccccc34)C(=O)N[C@@H](C)C(N)=O)NC(=O)[C@H](CCC(N)=O)NC(=O)[C@H](Cc3ccccc3)NC(=O)[C@H](C)NC(=O)[C@H](C)NC(=O)[C@H](CC(=O)O)NC(=O)[C@H](CC(=O)O)NC1=O)NC(=O)[C@H](C)NC(=O)[C@H](CC(=O)O)NC2=O (stereo partly drawn) [I-316, Ac-PL3-Asp-Ala-B5-Asp-Asp-Ala-Ala-Phe-Gln-S8-Phe-Trp-Ala-NH2] | 136 | – | – | 3980 | 1.91 |
| CC(=O)N1CCC[C@]12CC=CCCCC1(CCCC=CCCCCCC[C@@](C)(C(=O)N[C@@H](Cc3ccccc3F)C(=O)N[C@@H](Cc3c[nH]c4ccccc34)C(=O)N[C@@H](CCC(N)=O)C(N)=O)NC(=O)[C@H](C(C)C)NC(=O)[C@H](Cc3ccccc3)NC(=O)[C@H](C)NC(=O)[C@H](C)NC(=O)[C@H](CC(=O)O)NC(=O)[C@H](CC(=O)O)NC1=O)NC(=O)[C@H](C)NC(=O)[C@H](CC(=O)O)NC2=O (stereo partly drawn) [I-318, Ac-PL3-Asp-Ala-B5-Asp-Asp-Ala-Ala-Phe-Val-S8-2FF-Trp-Gln-NH2] | 121 | 2.001 | 4630 | 4630 | – |
